In patent US11207325B2, “Triazolopyrimidine compounds and uses thereof” (Novartis AG, priority 2014, dated 2021) one finds IC50 data, which are given here for 32 compounds.

The structures appear in SMILES notation.

This experiment concerns H3K27 methylation in G401 cell. As to the kind of experiment: ELISA (H3K27 methylation) assay. It is filed as cell-based. The conditions noted are these: Homo sapiens, G-401; ELISA Qualified assay (H3K27 methylation); read-out: (c) IC50 (μM), ELISA Qualified. The source says: ELISA (H3K27 Methylation) Assay
The IC50 is the point on the concentration scale where inhibition reaches its midpoint. Regarding `Fc1ccc2c(c1CNc1ncc(-c3ccc(C4CC4)nc3)c3nncn13)CCO2` [Example 119, 8-(6-cyclopropylpyridin-3-yl)-N-((5-fluoro-2,3-dihydrobenzofuran-4-yl)methyl)-[1,2,4]triazolo[4,3-c]pyrimidin-5-amine], the IC50 worked out at 0.0108 µM.

Consider `Fc1ccc2c(c1CNc1ncc(-c3ccnc(N4CCOCC4)c3)c3nncn13)CCO2` [Example 120, N-((5-fluoro-2,3-dihydrobenzofuran-4-yl)methyl)-8-(2-morpholinopyridin-4-yl)-[1,2,4]triazolo[4,3-c]pyrimidin-5-amine], for which the IC50 came out at 0.0721 µM.

As for `N#Cc1ccccc1-c1cnc(NCc2c(F)ccc3c2CCO3)n2cnnc12` [Example 121, 2-(5-(((5-fluoro-2,3-dihydrobenzofuran-4-yl)methyl)amino)-[1,2,4]triazolo[4,3-c]pyrimidin-8-yl)-benzonitrile], the IC50 was found to be 0.0142 µM.

In the case of `NC(=O)c1ccccc1-c1cnc(NCc2c(F)ccc3c2CCO3)n2cnnc12` [Example 122, 2-(5-(((5-fluoro-2,3-dihydrobenzofuran-4-yl)methyl)amino)-[1,2,4]triazolo[4,3-c]pyrimidin-8-yl)benzamide], the half-maximal inhibitory concentration (IC50) was 0.135 µM.

For the compound `Cc1ncccc1-c1cnc(NCc2cccc3c2CCO3)n2cnnc12` [Example 123, N-((2,3-dihydrobenzofuran-4-yl)methyl)-8-(2-methylpyridin-3-yl)-[1,2,4]triazolo[4,3-c]pyrimidin-5-amine], the half-maximal inhibitory concentration (IC50) was 0.0197 µM.

As to `Fc1ccc2c(c1CNc1ncc(-c3cnccc3Cl)c3nncn13)CCO2` [Example 124], the IC50 was determined as 0.006 µM.

Take `OC1CN(c2ccc(-c3cnc(NCc4cccc5c4CCO5)n4cnnc34)cn2)C1` [Example 126, 1-(5-(5-(((2,3-dihydrobenzofuran-4-yl)methyl)amino)-[1,2,4]triazolo[4,3-c]pyrimidin-8-yl)pyridin-2-yl)azetidin-3-ol]: the IC50 came out at 0.656 µM.

In the case of `Cc1cc(S(C)(=O)=O)ncc1-c1cnc(NCc2c(F)ccc3c2CCO3)n2cnnc12` [Example 127, N-((5-fluoro-2,3-dihydrobenzofuran-4-yl)methyl)-8-(4-methyl-6-(methylsulfonyl)pyridin-3-yl)-[1,2,4]triazolo[4,3-c]pyrimidin-5-amine], the IC50 was determined as 0.028 µM.

As to `Cc1cc(S(C)(=O)=O)ccc1-c1cnc(NCc2c(F)ccc3c2CCO3)n2cnnc12` [Example 128, N-((5-fluoro-2,3-dihydrobenzofuran-4-yl)methyl)-8-(2-methyl-4-(methylsulfonyl)phenyl)-[1,2,4]triazolo[4,3-c]pyrimidin-5-amine], the IC50 is 0.0037 µM.

In the case of `O=C(c1ccc(-c2cnc(NCc3c(F)ccc4c3CCO4)n3cnnc23)cn1)N1CCCC1` [Example 129, (5-(5-(((5-fluoro-2,3-dihydrobenzofuran-4-yl)methyl)amino)-[1,2,4]triazolo[4,3-c]pyrimidin-8-yl)pyridin-2-yl)(pyrrolidin-l-yl)methanone], the IC50 came out at 0.0019 µM.

In the case of `Cc1cc(C(=O)N2CCCC2)ncc1-c1cnc(NCc2c(F)ccc3c2CCO3)n2cnnc12` [Example 130, (5-(5-(((5-fluoro-2,3-dihydrobenzofuran-4-yl)methyl)amino)-[1,2,4]triazolo[4,3-c]pyrimidin-8-yl)-4-methylpyridin-2-yl)(pyrrolidin-l-yl)methanone], the IC50 is 0.0013 µM.

Consider `Cc1cc(C(=O)N(C)C)ncc1-c1cnc(NCc2c(F)ccc3c2CCO3)n2cnnc12` [Example 131, 5-(5-(((5-fluoro-2,3-dihydrobenzofuran-4-yl)methyl)amino)-[1,2,4]triazolo[4,3-c]pyrimidin-8-yl)-N,N,4-trimethylpicolinamide], for which the IC50 is 0.0033 µM.

Take `Cc1nn(C)c(C)c1-c1cnc(NCc2c(F)ccc3c2CCO3)n2cnnc12` [Example 132, N-((5-fluoro-2,3-dihydrobenzofuran-4-yl)methyl)-8-(1,3,5-trimethyl-1H-pyrazol-4-yl)-[1,2,4]triazolo[4,3-c]pyrimidin-5-amine]: the IC50 was 0.0077 µM.

For `O=C1CN(Cc2ccc(-c3cnc(NCc4cccc5c4CCO5)n4cnnc34)cn2)CCN1` [Example 133, 4-((5-(5-(((2,3-dihydrobenzofuran-4-yl)methyl)amino)-[1,2,4]triazolo[4,3-c]pyrimidin-8-yl)pyridin-2-yl)methyl)piperazin-2-one], the IC50 was found to be 0.142 µM.

Turning to `O=CN1CCN(c2ccc(-c3cnc(NCc4cccc5c4CCO5)n4cnnc34)cn2)CC1` [Example 134, 4-(5-(5-(((2,3-dihydrobenzofuran-4-yl)methyl)amino)-[1,2,4]triazolo[4,3-c]pyrimidin-8-yl)pyridin-2-yl)piperazine-1-carbaldehyde], the IC50 was determined as 0.165 µM.

For the compound `CN(C)C(=O)CCc1ccc(-c2cnc(NCc3cccc4c3CCO4)n3cnnc23)cn1` [Example 135, 3-(5-(5-(((2,3-dihydrobenzofuran-4-yl)methyl)amino)-[1,2,4]triazolo[4,3-c]pyrimidin-8-yl)pyridin-2-yl)-N,N-dimethylpropanamide], the concentration for half-maximal inhibition (IC50) turned out to be 0.321 µM.

On to `Fc1ccc2c(c1CNc1ncc(-c3cnccc3C(F)(F)F)c3nncn13)CCO2` [Example 136, N-((5-fluoro-2,3-dihydrobenzofuran-4-yl)methyl)-8-(4-(trifluoromethyl)pyridin-3-yl)-[1,2,4]triazolo[4,3-c]pyrimidin-5-amine], for which the IC50 is 0.0804 µM.

As to `COCc1cc(-c2cnc(NCc3cccc4c3CCO4)n3cnnc23)cnc1C` [Example 137, N-((2,3-dihydrobenzofuran-4-yl)methyl)-8-(5-(methoxymethyl)-6-methylpyridin-3-yl)-[1,2,4]triazolo[4,3-c]pyrimidin-5-amine], the IC50 was 0.226 µM.

In the case of `COc1cc(Cl)c(-c2cnc(NCc3c(F)ccc4c3CCO4)n3cnnc23)cn1` [Example 138, 8-(4-chloro-6-methoxypyridin-3-yl)-N-((5-fluoro-2,3-dihydrobenzofuran-4-yl)methyl)-[1,2,4]triazolo[4,3-c]pyrimidin-5-amine], the IC50 came to 0.0072 µM.

Take `Cc1nc(S(C)(=O)=O)ccc1-c1cnc(NCc2c(F)ccc3c2CCO3)n2cnnc12` [Example 139, N-((5-fluoro-2,3-dihydrobenzofuran-4-yl)methyl)-8-(2-methyl-6-(methylsulfonyl)pyridin-3-yl)-[1,2,4]triazolo[4,3-c]pyrimidin-5-amine]: the IC50 was found to be 0.0016 µM.

Consider `CN(C)C(=O)c1ccc(-c2cnc(NCc3c(F)ccc4c3CCO4)n3cnnc23)cn1` [Example 140, 5-(5-(((5-fluoro-2,3-dihydrobenzofuran-4-yl)methyl)amino)-[1,2,4]triazolo[4,3-c]pyrimidin-8-yl)-N,N-dimethylpicolinamide], for which the IC50 stood at 0.0263 µM.

In the case of `COc1ncccc1-c1cnc(NCc2c(F)ccc3c2CCO3)n2cnnc12` [Example 141, N-((5-fluoro-2,3-dihydrobenzofuran-4-yl)methyl)-8-(2-methoxypyridin-3-yl)-[1,2,4]triazolo[4,3-c]pyrimidin-5-amine], the IC50 stood at 0.0351 µM.

For the compound `COc1ccc(-c2cnc(NCc3c(F)ccc4c3CCO4)n3cnnc23)cn1` [Example 142, N-((5-fluoro-2,3-dihydrobenzofuran-4-yl)methyl)-8-(6-methoxypyridin-3-yl)-[1,2,4]triazolo[4,3-c]pyrimidin-5-amine], the IC50 turned out to be 0.0043 µM.

For the compound `CCn1nccc1-c1cnc(NCc2c(F)ccc3c2CCO3)n2cnnc12` [Example 143, 8-(1-ethyl-1H-pyrazol-5-yl)-N-((5-fluoro-2,3-dihydrobenzofuran-4-yl)methyl)-[1,2,4]triazolo[4,3-c]pyrimidin-5-amine], the IC50 was found to be 0.0106 µM.

For the compound `CC(C)n1nccc1-c1cnc(NCc2c(F)ccc3c2CCO3)n2cnnc12` [Example 144, N-((5-fluoro-2,3-dihydrobenzofuran-4-yl)methyl)-8-(1-isopropyl-1H-pyrazol-5-yl)-[1,2,4]triazolo[4,3-c]pyrimidin-5-amine], the IC50 is 0.0683 µM.

Turning to `COc1cc(-c2cnc(NCc3c(F)ccc4c3CCO4)n3cnnc23)ccn1` [Example 145, N-((5-fluoro-2,3-dihydrobenzofuran-4-yl)methyl)-8-(2-methoxypyridin-4-yl)-[1,2,4]triazolo[4,3-c]pyrimidin-5-amine], the IC50 is 0.0052 µM.

`Fc1ccc2c(c1CNc1ncc(-c3ccc(Cl)cc3Cl)c3nncn13)CCO2` [Example 146, 8-(2,4-dichlorophenyl)-N-((5-fluoro-2,3-dihydrobenzofuran-4-yl)methyl)-[1,2,4]triazolo[4,3-c]pyrimidin-5-amine]: the IC50 amounted to 0.0744 µM.

`Cn1cc(-c2cnc(NCc3c(F)ccc4c3CCO4)n3cnnc23)cn1` [Example 147, N-((5-fluoro-2,3-dihydrobenzofuran-4-yl)methyl)-8-(1-methyl-1H-pyrazol-4-yl)-[1,2,4]triazolo[4,3-c]pyrimidin-5-amine]: the IC50 was determined as 0.0113 µM.

For the compound `CC(C)n1cc(-c2cnc(NCc3c(F)ccc4c3CCO4)n3cnnc23)c(C(F)(F)F)n1` [Example 148, N-((5-fluoro-2,3-dihydrobenzofuran-4-yl)methyl)-8-(1-isopropyl-3-(trifluoromethyl)-1H-pyrazol-4-yl)-[1,2,4]triazolo[4,3-c]pyrimidin-5-amine], the IC50 is 0.0252 µM.

Take `c1cc(CNc2ncc(-c3cnn(C4CC4)c3)c3nncn23)c2c(c1)OCC2` [Example 149, 8-(1-cyclopropyl-1H-pyrazol-4-yl)-N-((2,3-dihydrobenzofuran-4-yl)methyl)-[1,2,4]triazolo[4,3-c]pyrimidin-5-amine]: the IC50 was 0.22 µM.

Consider `Fc1ccc2c(c1CNc1ncc(-c3cnn(C4CC4)c3)c3nncn13)CCO2` [Example 150, 8-(1-cyclopropyl-1H-pyrazol-4-yl)-N-((5-fluoro-2,3-dihydrobenzofuran-4-yl)methyl)-[1,2,4]triazolo[4,3-c]pyrimidin-5-amine], for which the IC50 was 0.0148 µM.

As for `Cc1nn(C(C)C)c(C)c1-c1cnc(NCc2c(F)ccc3c2CCO3)n2cnnc12` [Example 151, N-((5-fluoro-2,3-dihydrobenzofuran-4-yl)methyl)-8-(1-isopropyl-3,5-dimethyl-1H-pyrazol-4-yl)-[1,2,4]triazolo[4,3-c]pyrimidin-5-amine], the IC50 came to 0.0086 µM.
